Assay results as given in patent US20260206761A1, “HETEROARYL-TRIAZOLE COMPOUNDS AS PESTICIDES” (Bayer Aktiengesellschaft, priority 2019, published 2026).

Experiments:
Format in all cases: in vivo
[1] = test system: larvae of the banded cucumber beetle (Diabrotica balteata); experiment: Diabrotica balteata spray test; conditions: 168 h, after 7 days, read-out: activity (efficacy: seedlings grown); for pest or weed control at 500 g/ha: application rate 500 g/ha (=160 pg/well); for pest or weed control at 100 g/ha: application rate 100 g/ha (=32 pg/well)
Protocol: Diabrotica balteata—spray test
(§1) Solvent: 78.0 parts by weight of acetone • • 1.5 parts by weight of dimethylformamide
(§2) Emulsifier: alkylarylpolyglycol ether
(§3) To produce a suitable preparation of active compound, 1 part by weight of active compound is mixed with the stated amount of solvent, and the concentrate is diluted with water, containing an emulsifier concentration of 1000 ppm, to the desired concentration. Further test concentrations are prepared by dilution with emulsifier containing water.
Soaked wheat seeds (Triticum aestivum) are placed in a multiple well plate filled with agar and some water and are incubated for 1 day to germinate (5 seeds per well). The germinated wheat seeds are sprayed with a test solution containing the desired concentration of the active ingredient. Afterwards each unit is infected with 10-20 larvae of the banded cucumber beetle (Diabrotica balteata).
After 7 days efficacy in % is determined. 100% means all the seedlings have grown up like in the untreated, uninfected control; 0% means none of the seedlings have grown.

[2] = test system: adult engorged female ticks (Rhipicephalus microplus); experiment: Rhipicephalus (Boophilus) microplus injection test; conditions: 168 h, egg deposition after 7 days, read-out: activity (efficacy: infertile eggs); for pest or weed control at 0.02 mg: application rate 20 μg/animal; for pest or weed control at 4 pg: application rate 4 pg/animal
Protocol: Rhipicephalus (Boophilus) microplus—Injection Test
Solvent: dimethyl sulfoxide
To produce a suitable preparation of active compound, 10 mg of active compound are dissolved in 0.5 mL solvent, and the concentrate is diluted with solvent to the desired concentration.
Five adult engorged female ticks (Rhipicephalus microplus) are injected with 1 μL compound solution into the abdomen. The ticks are transferred into replica plates and incubated in a climate chamber.
After 7 days egg deposition of fertile eggs is monitored. Eggs where fertility is not visible are stored in a climate chamber till hatching after about 42 days. An efficacy of 100% means all eggs are infertile; 0% means all eggs are fertile.

[3] = test system: fall armyworm larvae (Spodoptera frugiperda); experiment: Spodoptera frugiperda spray test; conditions: 168 h, read-out: activity (mortality)
Protocol: Spodoptera frugiperda—Spray Test
Solvent: 78.0 parts by weight acetone • 1.5 parts by weight dimethylformamide
as §2
as §3, with “solvents” for “solvent,”, “and” for “and the concentrate”
Maize (Zea mays) leaf sections are sprayed with a preparation of the active ingredient of the desired concentration. Once dry, the leaf sections are infested with fall armyworm larvae (Spodoptera frugiperda).
After 7 days mortality in % is determined. 100% means all caterpillars have been killed and 0% means none of the caterpillars have been killed.

[4] = test system: Rhipicephalus microplus larvae (strain Parkhurst, resistant against synthetic pyrethroids); experiment: Rhipicephalus (Boophilus) microplus in-vitro contact test, larval cattle tick; conditions: after 48 hours, read-out: activity (efficacy: larvae dead or moribund); for pest or weed control at 100 g/ha: application rate 1 pg/cm^2 (=100 g/ha); for pest or weed control at 500 g/ha: application rate 5 pg/cm^2 (=500 g/ha)
Protocol: Rhipicephalus (Boophilus) microplus—In-Vitro Contact Tests Larval Cattle Tick (Strain Parkhurst. Resistant Against Synthetic Pyrethroids)
(§4) 9 mg compound is solved in 1 mL acetone and diluted with acetone to the desired concentration. 250 μL of the test solution is filled in 25 mL glass test tubes and homogeneously distributed on the inner walls by rotation and tilting on a shaking device (2 h at 30 rpm). With a compound concentration of 900 ppm, an inner surface of 44.7 cm^2 and a homogeneous distribution, a dose of 5 μg/cm^2 is achieved.
After the solvent has evaporated, each test tube is filled with 20-50 cattle tick larvae (Rhipicephalus microplus), closed with a perforated lid and incubated in a horizontal position at 85% relative humidity and 27° C. in an incubator. After 48 hours efficacy is determined. The larvae are patted on the ground of the tubes and negative geotactic behaviour is recorded.
An efficacy of 100% means all larvae are dead or moribund; 0% means no larvae are dead or moribund.

[5] = test system: adult brown dog ticks (Rhipicephalus sanguineus); experiment: Rhipicephalus sanguineus in-vitro contact test, adult brown dog ticks; conditions: after 48 hours, read-out: activity (efficacy: ticks dead or moribund); for pest or weed control at 100 g/ha: application rate 1 pg/cm^2 (=100 g/ha); for pest or weed control at 5 µg/cm2, 500 g/ha: application rate 5 μg/cm^2 (=500 g/ha)
Protocol: Rhipicephalus sanguineus—In-Vitro Contact Tests with Adult Brown Dog Ticks
as §4
After the solvent has evaporated, each test tube is filled with 5-10 adult brown dog ticks (Rhipicephalus sanguineus), closed with a perforated lid and incubated in a lying position at room temperature and relative humidity. After 48 hours efficacy is determined. The ticks are patted on the ground of the tubes and are incubated on a heating plate at 45-50° C. for at most 5 minutes. Immotile or uncoordinated moving ticks, which are not able to escape the heat by climbing upwards, are marked as dead or moribund.
An efficacy of 100% means all ticks are dead or moribund; 0% means no ticks are dead or moribund.

[6] = test system: green peach aphid (Myzus persicae); experiment: Myzus persicae oral test; conditions: 120 h, application rate 4 ppm, after 5 days
Protocol: Solvent: 100 parts by weight acetone
To produce a suitable preparation of active compound, 1 part by weight of active compound is mixed with the stated amount of solvent, and the concentrate is diluted with water to the desired concentration.
50 μL compound solution is filled in microtiter plates and 150 μL IPL41 insect medium (33%+15% sugar) is added to obtain a total volume of 200 μL per well. Afterwards the plates are sealed with parafilm through which a mixed population of the green peach aphid (Myzus persicae) can suck on the compound preparation.
After 5 days mortality in % is determined. 100% means all aphids have been killed and 0% means none of the aphids have been killed.

[7] = test system: larvae of the southern green stink bug (Nezara viridula); experiment: Nezara viridula spray test; conditions: 96 h, after 4 days; for mortality at 500 g/ha: application rate 500 g/ha
Protocol: Nezara viridula—Spray Test
as §1, §2, §3
Barley plants (Hordeum vulgare) infested with larvae of the southern green stink bug (Nezara viridula) are sprayed with a test solution containing the desired concentration of the active ingredient.
After 4 days mortality in % is determined. 100% means all the stink bugs have been killed; 0% means none of the stink bugs have been killed.

Row | SMILES | mortality at 100 g/ha [3] | pest or weed control at 100 g/ha [4] | pest or weed control at 500 g/ha [4] | pest or weed control at 100 g/ha [1] | other results
1 | CCOc1nc([C@H](C)NC(=O)c2csc(Cl)c2)n(-c2ccc(C#N)cn2)n1 [I-10] |  |  |  |  | pest or weed control at 500 g/ha [1]: 100%; pest or weed control at 0.02 mg [2]: 80%
2 | CC(C)Oc1nc([C@H](C)NC(=O)c2cc(Cl)cc(S(C)(=O)=O)c2)n(-c2ccc(C#N)cn2)n1 [I-11] | 100% | 90% | 80% |  | mortality at 500 g/ha [3]: 83%; pest or weed control at 500 g/ha [1]: 80%; pest or weed control at 4 pg [2]: 100%; pest or weed control at 0.02 mg [2]: 100%
3 | CC(C)Oc1nc([C@H](C)NC(=O)c2csc(Cl)c2)n(-c2ccc(C#N)cn2)n1 [I-12] |  |  |  |  | pest or weed control at 0.02 mg [2]: 80%
4 | CC(C)S(=O)(=O)c1cc(Cl)cc(C(=O)N[C@@H](C)c2nc(C3CC3)nn2-c2ccc(C#N)cn2)c1 [I-14] |  | 100% | 100% |  | pest or weed control at 100 g/ha [5]: 80%; pest or weed control at 5 µg/cm2, 500 g/ha [5]: 80%; pest or weed control at 4 pg [2]: 100%; pest or weed control at 0.02 mg [2]: 100%
5 | C[C@H](NC(=O)c1cc(OC(F)(F)F)cc(C2CC2)c1)c1nc(C2CC2)nn1-c1ccc(C#N)cn1 [I-37] |  | 100% | 100% | 100% | pest or weed control at 4 pg [2]: 100%
6 | C[C@H](NC(=O)c1cc(Cl)cc(S(=O)(=O)C(F)(F)F)c1)c1nc(C2CC2)nn1-c1ccc(C#N)cn1 [I-40] | 100% | 100% | 100% | 100% | pest or weed control at 4 pg [2]: 100%
7 | CC(NC(=O)c1cc(C(F)(F)F)n(C)n1)c1nc(I)nn1-c1ncccn1 (centres unmarked) [I-42] |  | 100% | 100% | 100% | 
8 | COc1nc([C@H](C)NC(=O)c2cc(OC(F)(F)F)cc(C3CC3)c2)n(-c2ccc(Cl)cn2)n1 [I-46] |  |  |  | 100% | 
9 | C[C@H](NC(=O)c1cc(C2CC2)cc(S(C)(=O)=O)c1)c1nc(C2CC2)nn1-c1ccc(C#N)cn1 [I-49] | 100% | 100% | 100% |  | mortality at 4 ppm [6]: 100%
10 | CC(NC(=O)c1cc(Br)cc(C2(C(F)(F)F)CC2)c1)c1nc(Cl)nn1-c1ccc(C#N)cn1 (centres unmarked) [I-50] |  | 80% | 90% |  | 
11 | COc1nc([C@H](C)NC(=O)c2cc(Cl)cc(S(=O)(=O)C(F)F)c2)n(-c2ccc(Cl)cn2)n1 [I-53] | 100% |  |  | 100% | mortality at 4 ppm [6]: 100%
12 | COc1nc([C@H](C)NC(=O)c2cc(Cl)cc(S(=O)(=O)C(F)(F)F)c2)n(-c2ccc(C#N)cn2)n1 [I-54] | 100% | 100% | 100% |  | mortality at 4 ppm [6]: 100%
13 | COc1nc([C@H](C)NC(=O)c2cc(Cl)cc(S(=O)(=O)C(F)F)c2)n(-c2ccc(C#N)cn2)n1 [I-55] | 100% | 100% | 100% | 100% | mortality at 4 ppm [6]: 100%
14 | C[C@H](NC(=O)c1cc(C(F)F)cc(S(C)(=O)=O)c1)c1nc(C2CC2)nn1-c1ccc(Cl)cn1 [I-57] | 100% | 100% | 100% | 100% | pest or weed control at 100 g/ha [5]: 100%; pest or weed control at 5 µg/cm2, 500 g/ha [5]: 80%; mortality at 100 g/ha ([7]; application rate 100 g/ha): 100%; mortality at 500 g/ha [7]: 90%
15 | COc1nc([C@H](C)NC(=O)c2cc(Cl)cc(S(=O)(=O)C3CC3)c2)n(-c2ccc(Cl)cn2)n1 [I-62] | 100% |  |  | 100% | mortality at 4 ppm [6]: 100%
16 | C[C@H](NC(=O)c1cc(C(F)(F)F)cc(S(C)(=O)=O)c1)c1nc(C2CC2)nn1-c1ccc(Cl)cn1 [I-68] | 100% |  |  | 100% | mortality at 4 ppm [6]: 100%
17 | COc1nc([C@H](C)NC(=O)c2cc(Br)cc(C3CC3(F)F)c2)n(-c2ccc(C#N)cn2)n1 (some centres unmarked) [I-72] | 100% | 100% | 90% |  | mortality at 500 g/ha [7]: 90%
18 | COc1nc([C@H](C)NC(=O)c2cc(F)cc(S(C)(=O)=O)c2)n(-c2ccc(C#N)cn2)n1 [I-73] | 100% |  |  | 100% | 
19 | COc1nc([C@H](C)NC(=O)c2cc(Cl)cc(S(C)(=O)=O)c2)n(-c2ncc(Cl)cn2)n1 [I-78] | 100% |  |  | 100% | 
20 | CC(NC(=O)c1cc(OC(F)(F)F)cc(C2CC2)c1)c1nc(Cl)nn1-c1ccc(C#N)cn1 (centres unmarked) [I-85] |  | 90% | 90% | 100% | 
21 | C[C@H](NC(=O)c1cc(OC(F)F)cc(S(=O)(=O)C2CC2)c1)c1nc(C2CC2)nn1-c1ccc(C#N)cn1 [I-86] | 100% |  |  | 100% | mortality at 500 g/ha [7]: 100%
22 | COc1nc([C@H](C)NC(=O)c2cc(Cl)cc(S(=O)(=O)C3CC3)c2)n(-c2ccc(C#N)cn2)n1 [I-87] | 100% |  |  |  | mortality at 500 g/ha [7]: 100%
23 | COc1nc([C@H](C)NC(=O)c2cc(C(F)F)cc(S(C)(=O)=O)c2)n(-c2ccc(C#N)cn2)n1 [I-89] | 100% |  |  |  | mortality at 500 g/ha [7]: 100%
24 | C[C@H](NC(=O)c1cc(OC(F)(F)F)cc(S(=O)(=O)C2CC2)c1)c1nc(C2CC2)nn1-c1ccc(C#N)cn1 [I-90] | 100% |  |  | 100% | mortality at 500 g/ha [7]: 100%
25 | COc1nc([C@H](C)NC(=O)c2cc(OC(F)(F)F)cc(S(=O)(=O)C3CC3)c2)n(-c2ccc(C#N)cn2)n1 [I-92] | 100% |  |  |  | mortality at 500 g/ha [7]: 90%
26 | C[C@H](NC(=O)c1cc(Br)cc(C(C)(C)C)c1)c1nncn1-c1ccc(C#N)cn1 [II-2] |  |  |  |  | mortality at 500 g/ha [3]: 100%; pest or weed control at 500 g/ha [1]: 100%; pest or weed control at 4 pg [2]: 100%; pest or weed control at 0.02 mg [2]: 100%
27 | Cc1nc([C@H](C)NC(=O)c2sccc2C(F)(F)F)n(-c2ccc(C#N)cn2)n1 [II-10] |  |  | 90% |  | 
